From ChEMBL document CHEMBL1152980, “Identification of enoxacin as an inhibitor of osteoclast formation and bone resorption by structure-based virtual screening” (J Med Chem, 2009)
pIC50: −log10 of the molar value. Active and inactive are the calls of the source. No cut-off for these calls is given here.

Key:
[1] = (§1) Antiresorptive activity against 1,25-dihydroxyvitamin D3-stimulated osteoclast formation in Swiss Webster mouse bone marrow cells assessed as reduction of tartrate-resistant acid phosphatase activity after 7 days; format: functional, cell-based; settings: Bone marrow cell, 168 h
Osteoclast [2] = experiment: Antiresorptive activity in 1,25-dihydroxyvitamin D3-stimulated Swiss Webster mouse osteoclast assessed as blockade of ruffled membrane formation on bone slices at 100 uM after 3 days; format: functional, cell-based
Osteoclast [3] = experiment: Antiresorptive activity in 1,25-dihydroxyvitamin D3-stimulated Swiss Webster mouse osteoclast assessed as blockade of actin ring formation on bone slices at 10 uM after 3 days; format: functional, cell-based
Bone marrow cell [4] = experiment: Antiresorptive activity in 1,25-dihydroxyvitamin D3-stimulated Swiss Webster mouse bone marrow cells assessed as reduction in bone pit formation at 25 uM after 5 days; format: functional, cell-based
[5] = Reduction in osteoblast formation from mouse MC3T3-E1 cells assessed as alkaline phosphatase activity at 100 uM after 3 days; format: cell-based; settings: mc3t3-e1, 72 h
[6] = Cytotoxicity against mouse MC3T3-E1 cells assessed as change in morphology at 100 uM after 3 days; format: cell-based; settings: mc3t3-e1, 72 h
Bone marrow cell [7] = experiment: Antiresorptive activity in 1,25-dihydroxyvitamin D3-stimulated Swiss Webster mouse bone marrow cells at 100 uM after 5 days; format: functional, cell-based
Osteoclast [8] = experiment: Antiresorptive activity in 1,25-dihydroxyvitamin D3-stimulated Swiss Webster mouse osteoclast assessed as blockade of actin ring formation on bone slices at 100 uM after 3 days; format: functional, cell-based
[9] = molecular target: V-type proton ATPase subunit B (Saccharomyces cerevisiae S288c) (UniProt P16140); experiment: Inhibition of Saccharomyces cerevisiae V-ATPase subunit B expressed in Escherichia coli binding to rabbit muscle actin filament at 100 uM by pelleting assay; settings: Muscle tissue
Sequence of V-type proton ATPase subunit B (Saccharomyces cerevisiae S288c) (P16140 whole entry): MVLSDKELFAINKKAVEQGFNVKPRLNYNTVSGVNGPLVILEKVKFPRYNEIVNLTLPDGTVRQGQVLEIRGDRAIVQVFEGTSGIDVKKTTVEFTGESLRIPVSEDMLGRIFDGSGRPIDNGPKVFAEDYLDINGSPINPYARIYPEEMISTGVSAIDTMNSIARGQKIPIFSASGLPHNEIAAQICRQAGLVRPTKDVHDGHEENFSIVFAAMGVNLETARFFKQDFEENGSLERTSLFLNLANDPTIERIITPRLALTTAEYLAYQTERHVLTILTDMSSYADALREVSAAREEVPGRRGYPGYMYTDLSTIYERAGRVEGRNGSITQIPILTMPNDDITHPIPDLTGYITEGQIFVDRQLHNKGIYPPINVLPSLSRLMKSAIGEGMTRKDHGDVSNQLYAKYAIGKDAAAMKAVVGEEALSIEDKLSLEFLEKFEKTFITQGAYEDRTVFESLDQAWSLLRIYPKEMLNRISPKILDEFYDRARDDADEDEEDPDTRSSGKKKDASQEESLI

Osteoclast [10] = experiment: Antiresorptive activity in 1,25-dihydroxyvitamin D3-stimulated Swiss Webster mouse osteoclast assessed as blockade of actin ring formation on bone slices at 1 uM after 3 days; format: functional, cell-based
Bone marrow cell [11] = experiment: as §1; format: functional, cell-based
Bone marrow cell [12] = experiment: Antiresorptive activity in 1,25-dihydroxyvitamin D3-stimulated Swiss Webster mouse bone marrow cells assessed as reduction in resorptive area at 25 uM after 5 days; format: functional, cell-based
Bone marrow cell [13] = experiment: Antiresorptive activity in 1,25-dihydroxyvitamin D3-stimulated Swiss Webster mouse bone marrow cells assessed as reduction in bone pit formation at 10 uM after 5 days; format: functional, cell-based
[14] = Reduction in mouse MC3T3-E1 cell growth at 100 uM after 3 days; format: cell-based; settings: mc3t3-e1, 72 h
[15] = molecular target: V-type proton ATPase subunit B, brain isoform (Homo sapiens, UniProt P21281); experiment: Inhibition of maltose binding protein-fused human V-ATPase subunit B2 binding to F-actin
Sequence of V-type proton ATPase subunit B, brain isoform (P21281 whole entry, the tested form may be a part, canonical isoform): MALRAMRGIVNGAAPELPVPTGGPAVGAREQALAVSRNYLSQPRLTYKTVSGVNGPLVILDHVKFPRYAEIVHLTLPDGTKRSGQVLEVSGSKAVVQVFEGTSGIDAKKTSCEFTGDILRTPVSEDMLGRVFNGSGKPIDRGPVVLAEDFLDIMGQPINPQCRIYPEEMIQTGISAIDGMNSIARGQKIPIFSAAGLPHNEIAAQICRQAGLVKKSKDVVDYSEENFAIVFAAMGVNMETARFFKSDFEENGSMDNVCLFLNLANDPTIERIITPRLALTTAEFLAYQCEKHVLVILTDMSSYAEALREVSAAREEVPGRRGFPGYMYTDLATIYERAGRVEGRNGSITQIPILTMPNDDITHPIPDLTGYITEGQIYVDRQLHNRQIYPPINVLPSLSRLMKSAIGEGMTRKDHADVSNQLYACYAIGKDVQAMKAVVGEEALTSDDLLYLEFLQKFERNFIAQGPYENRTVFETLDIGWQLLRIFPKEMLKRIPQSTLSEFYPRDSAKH

Bone marrow cell [16] = experiment: Antiresorptive activity in 1,25-dihydroxyvitamin D3-stimulated Swiss Webster mouse bone marrow cells after 5 days; format: functional, cell-based
Osteoclast [17] = experiment: Antiresorptive activity in 1,25-dihydroxyvitamin D3-stimulated Swiss Webster mouse osteoclast assessed as blockade of ruffled membrane formation on bone slices at 10 uM after 3 days; format: functional, cell-based
Osteoclast [18] = experiment: Antiresorptive activity in 1,25-dihydroxyvitamin D3-stimulated Swiss Webster mouse osteoclast assessed as blockade of ruffled membrane formation on bone slices at 1 uM after 3 days; format: functional, cell-based

SMILES | pIC50 [1] | Activity (Osteoclast [2]) | Activity (Osteoclast [3]) | Activity (Bone marrow cell [4]) | Activity [5] | Activity [6] | Activity (Bone marrow cell [7]) | Activity (Osteoclast [8]) | inhibition [9] | Activity (Osteoclast [10]) | Activity (Bone marrow cell [11]) | Activity (Bone marrow cell [12]) | Activity (Bone marrow cell [13]) | Activity [14] | pIC50 [15] | Activity (Bone marrow cell [16]) | Activity (Osteoclast [17]) | Activity (Osteoclast [18])
CCn1cc(C(=O)O)c(=O)c2cc(F)c(N3CCN(C)CC3)cc21 [PEFLOXACIN] | < 4.30 |  |  |  |  |  |  |  |  |  |  |  |  |  |  |  |  | 
CCn1cc(C(=O)O)c(=O)c2cc(F)c(N3CCNCC3)nc21 [ENOXACIN] |  | Active | Active | Active | Toxic | Toxic | Active | Active | Active | inactive | Dose-dependent effect | Active | Active | Toxic | 5.00 | Dose-dependent effect | Active | inactive
